{
  "source": "patent US20090016989A1",
  "about": "“ANTIBODIES TO HUMAN SOMATOSTATIN RECEPTOR AND METHODS OF USE” (priority 2007, published 2009)",
  "key": {"[1]": {"system": "BON cells", "test": "Guava Nexin apoptosis assay (Annexin V / 7-AAD)", "type": "cell-based, human", "conditions": "6 hours after treatment with staurosporin, % of Total", "description": "Cells were then switched to growth media without FBS and allowed to grow for another 24 hours before applying treatments. Samples were collected and counted in accordance with Guava Technologies' Viacount Flex (Cat#4500-0110) instructions. At the end of each antibody treatment, cells were dissociated from the plate using 1× trypsin-EDTA (Invitrogen Cat#2520). […] Next, phosphate buffer solution (D-PBS) (Invitrogen Cat#14190-144) (Invitrogen) was used as the exchange buffer to resuspend the cell pellet. […] Detection was achieved by using Guava PCA96 instrument and data was analysed by using Guava Nexin software module as (Cat#0500-0250). […] Following the protocol for the Guava Nexin™ assay (Guava Technologies), two different dyes were used to stain for cells undergoing apoptosis: 7-AAD stains for dead and late apoptosis cells (upper right quadrant of each graph in FIG. 10), and Annexin V stains for cells undergoing apoptosis from the early stage (lower right quadrant of each graph in FIG. 10). […] Once every 24 hours for 72 hours (FIGS. 10B, 10C and 10D), cells were collected and tested for apoptosis status using the Guava Nexin™ assay (Guava Technologies)."}, "[2]": {"system": "BON cells", "test": "Guava Nexin apoptosis assay (Annexin V / 7-AAD)", "type": "cell-based, human", "conditions": "6 hours after treatment with staurosporin, % of Total", "remark": "listed apart in the source"}},
  "data": [
    {"smiles": "CN[C@@H]1C[C@H]2O[C@@](C)([C@@H]1OC)n1c3ccccc3c3c4c(c5c6ccccc6n2c5c31)C(=O)NC4", "note": "[Staurosporine]", "values": [
      {"measurement": "Early apoptotic cells (Lower Right Quadrant)", "setting": "[1]", "result": 28.7, "unit": "%"},
      {"measurement": "Late apoptotic cells (Upper Right Quadrant)", "setting": "[1]", "result": 23.7, "unit": "%"},
      {"measurement": "Live, healthy cells (Lower Left Quadrant)", "setting": "[1]", "result": 46.7, "unit": "%"},
      {"measurement": "Annexin V+", "setting": "[2]", "result": 52.3, "unit": "%"},
      {"measurement": "Nuclear Debris (Upper Left Quadrant)", "setting": "[2]", "result": 1.0, "unit": "%"}
    ]}
  ]
}
